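Values below derive from 48-hour exposures of cells grown in 96-well plates, with endpoints linearly interpolated between the two concentrations bracketing the appropriate inhibition level. Here, GI50 denotes the concentration required for 50% inhibition of growth.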 Calls of active or inactive are those of the source. No stated cut-off is given here; in the data, active = GI50 up to about 1.1 µM and inactive = higher.
Key:
Assay in all cases: DTP human tumour cell line panel, 48 h
[1] = system: A498
[2] = system: A549
[3] = system: ACHN
[4] = system: COLO 205
[5] = system: HCT-116
[6] = system: HCT-15
[7] = system: HL-60
[8] = system: M14
[9] = system: MDA-MB-231
[10] = system: NCI-H23
[11] = system: OVCAR-4
[12] = system: SF-268
[13] = system: SK-MEL-28
[14] = system: SK-MEL-2
[15] = system: SK-MEL-5
[16] = system: SK-OV-3
[17] = system: SR
[18] = system: UACC-62

With COc1cc(Oc2nc3ccccc3nc2C(=O)O)cc(OC)c1OC the GI50 [1] was > 100 µM (inactive), the GI50 [2] was > 100 µM (inactive) and the GI50 [3] was > 100 µM (inactive). For the same compound, the GI50 [4] was > 100 µM (inactive), the GI50 [5] was > 100 µM (inactive) and the GI50 [6] was greater than 100 µM. The GI50 [7] was > 100 µM (inactive), the GI50 [8] was > 100 µM (inactive) and the GI50 [9] was > 100 µM (inactive). The GI50 [10] was > 100 µM (inactive), the GI50 [11] was > 100 µM (inactive) and the GI50 [12] was > 100 µM (inactive). The GI50 [13] was > 100 µM (inactive), the GI50 [14] was > 100 µM (inactive) and the GI50 [15] was > 100 µM (inactive). For the same compound, the GI50 [16] was > 100 µM (inactive), the GI50 [17] was > 100 µM (inactive) and the GI50 [18] was > 100 µM (inactive).
In the case of CCOC(=O)C1=C(C)N(Cc2ccc(Cl)cc2Cl)C2(O)C(OC)CC(=O)C3C(=O)N(c4ccccc4)C(=O)C132 (configuration not stated), the GI50 [1] is reported as 10.8 µM (inactive), the GI50 [2] is reported as 2.34 µM (inactive) and the GI50 [3] is reported as 3.12 µM (inactive). The GI50 [4] was 3.64 µM (inactive), the GI50 [5] was 1.39 µM (inactive) and the GI50 [6] was 1.36 µM. For the same compound, the GI50 [7] was 2.24 µM (inactive), the GI50 [8] was 2.09 µM (inactive) and the GI50 [9] was 1.38 µM (inactive). For the same compound, the GI50 [10] was 3.46 µM (inactive), the GI50 [11] was 1.6 µM (inactive) and the GI50 [12] was 2.26 µM (inactive). The GI50 [13] was 1.97 µM (inactive), the GI50 [14] was 1.28 µM (inactive) and the GI50 [15] was 3.97 µM (inactive). The GI50 [17] was 1.57 µM (inactive) and the GI50 [18] was 3.13 µM (inactive).
In the case of Cc1[nH]n(C2=NCCN2)c(=O)c1C, the GI50 [1] is reported as > 100 µM (inactive), the GI50 [2] is reported as > 100 µM (inactive) and the GI50 [3] is reported as > 100 µM (inactive). For the same compound, the GI50 [4] was > 100 µM (inactive), the GI50 [5] was > 100 µM (inactive) and the GI50 [6] was greater than 100 µM. The GI50 [7] was > 100 µM (inactive), the GI50 [8] was > 100 µM (inactive) and the GI50 [9] was > 100 µM (inactive). The GI50 [10] was > 100 µM (inactive), the GI50 [11] was > 100 µM (inactive) and the GI50 [12] was > 100 µM (inactive). For the same compound, the GI50 [14] was > 100 µM (inactive), the GI50 [15] was > 100 µM (inactive) and the GI50 [16] was > 100 µM (inactive). For the same compound, the GI50 [17] was > 100 µM (inactive) and the GI50 [18] was > 100 µM (inactive).

From ChEMBL document CHEMBL1201862, “PubChem BioAssay data set” (2004)
